{"source": "paper PMC11655065", "about": "“Antimicrobial activity of iron-depriving pyoverdines against human opportunistic pathogens” (eLife, 2024)", "key": {"A. baumannii [1]": {"system": "A. baumannii", "design": "method as in Visca et al., 2013; de Léséleuc et al., 2012", "conditions": "ref Visca et al., 2013; de Léséleuc et al., 2012; cited from earlier work"}, "P. aeruginosa": {"system": "P. aeruginosa", "conditions": "2012, 2013, cited from earlier work"}, "[2]": {"conditions": "cited from earlier work; for iron association constant: ref Bohac et al., 2019, Shapiro and Wencewicz, 2016, Sheldon and Skaar, 2020"}, "K. pneumoniae [3]": {"system": "K. pneumoniae", "experiment": "Dose–response growth inhibition in CAA medium", "format": "cell-based, Klebsiella pneumoniae", "experimental": "(§1) Pathogen overnight cultures were grown in either 8 mL tryptic soy broth (TSB; for the two S. aureus strains) or 8 mL lysogeny broth (LB; all other pathogens) in 50 mL tubes at 37°C and 220 rpm agitation. Following two washing steps with 0.8% NaCl, we adjusted the overnight cultures to an optical density at 600 nm (OD600) of 1. For overnights of environmental isolates, we followed the same procedure when working with low sample sizes, with the only difference being that culturing occurred at 28°C. For the large-scale screening experiments, we grew environmental isolates in 200 µL LB in 96-well plates shaken at 170 rpm. Cultures from plates were then directly used for experiments. For all main experiments (screen for bioactive pyoverdines and dose–response curves), we used CAA medium (1% casamino acids, 5 mM K2HPO4 * 3H2O,1 mM MgSO4*7 H2O, 25 mM HEPES buffer). This medium contains low levels of iron, triggering pyoverdine production ([Cunrath et al., 2016]).\n(§2) To determine the inhibition potential of crude- and HPLC-purified pyoverdines, as well as ferribactin, we subjected A. baumannii. K. pneumoniae, P. aeruginosa, and S. aureus to serially diluted extracts. For this, the extracts were dissolved in CAA medium, filter sterilized, and diluted in the same medium. Bacterial overnight cultures were grown and prepared as described above and added to a total of 200 µL medium on a 96-well plate with four replicates per extract dilution. […] We incubated the plates at 37°C statically in the plate reader and measured the OD600 every 15 min for 24 hr. Before each measurement, plates were shaken for 15 s. We repeated the experiment up to five times with different initial extract starting concentrations. This was done to ensure that the full dose response to pyoverdine was captured. Thus, sample size per individual extract concentration varied between 4 and 20 replicates. We subtracted the blank values and the background values caused by the treatment of the respective extract concentration from the measured growth data and calculated the integral (area under the growth curve) using the R package Growthcurver ([Sprouffske and Wagner, 2016]). We then expressed growth relative to the control medium, where bacteria grew in CAA without extract or antibiotic addition. Finally, we plotted extract/antibiotic concentration vs. relative growth and fitted dose–response curves (see below)."}, "S. aureus JE2": {"system": "S. aureus JE2", "experiment": "Dose–response growth inhibition in CAA medium", "format": "cell-based, Staphylococcus aureus", "experimental": "as §1, with “This medium contains low levels of iron, triggering pyoverdine production ([Cunrath et al., 2016]).” left out\n(§3) To determine the inhibition potential of crude- and HPLC-purified pyoverdines, as well as ferribactin, we subjected A. baumannii. […] We incubated the plates at 37°C statically in the plate reader and measured the OD600 every 15 min for 24 hr. […] We subtracted the blank values and the background values caused by the treatment of the respective extract concentration from the measured growth data and calculated the integral (area under the growth curve) using the R package Growthcurver ([Sprouffske and Wagner, 2016]). […]"}, "A. baumannii [4]": {"system": "A. baumannii", "experiment": "Dose–response growth inhibition in CAA medium", "format": "cell-based, Acinetobacter baumannii", "conditions": "for inhibition of A. baumannii with iron supplementation: crude pyoverdine", "experimental": "as §1, §2"}, "K. pneumoniae [5]": {"system": "K. pneumoniae", "experiment": "Infection model: treatment of infected larvae", "format": "in vivo, Galleria mellonella", "experimental": "(§4) We tested the efficacy of pyoverdine to treat infections in larvae of the host model G. mellonella. All larvae were ordered from a local vendor (Bait Express GmbH, Basel, Switzerland) and stored without food at 16°C in the dark for up to 3 days. In a first step, we determined the mean weight of 336 final instar G. mellonella larvae (mean = 435 mg). For all subsequent experiments, we weighed the larvae and only used individuals with a mean weight ±20% (range: 340–530 mg). Larvae were immobilized on ice for 15 min, surface-sterilized with 70% ethanol, and randomly distributed to individual wells on 24-well plates. Ten larvae were used per infection–treatment combination. To inject bacteria and administer treatments, we used sterile needles (Sterican 26G, 0.45 × 12 mm [Braun]) and syringes (1 mL injekt-F [Braun]) attached to a syringe pump (New Era Pump Systems Inc, model NE-300) set to a flow rate of 5 mL/hr. For both infection and treatment delivery, a volume of 10 µL per larvae was injected between the posterior larval prolegs.\n(§5) On the pathogen side, we determined the LD50 (lethal dose, killing 50% of the larvae) for A. baumannii (1.8 * 10^5 CFU/larvae) and K. pneumoniae (8.9 * 10^5 CFU/larvae) (Figure 5—figure supplement 1). For P. aeruginosa, we use 56 CFU/larvae because all doses tested killed 100% of the larvae (Figure 5—figure supplement 1). As negative control, we administered 10 µL/larvae of sterile PBS. Following infections, larvae were individually placed in wells of 24-well plates and incubated at 37°C in the dark for 4 hr.\n(§6) On the treatment side, we used pyoverdines 3A06, 3G07, and s3b09 at three concentrations that were non-toxic for the NSC-34 cells. For this, we prepared stocks of 60 mg/mL, 30 mg/mL, and 6 mg/mL of crude pyoverdines. Since the injected treatment volume was 10 µL per larvae, the final pyoverdine concentrations were 0.6 mg, 0.3 mg, and 0.06 mg per larvae, respectively. When scaling theses concentrations to the doses used for the […] dose–response curves (Figure 4), the relative pyoverdine concentrations were 0.1, 0.05, and 0.01. Pyoverdine treatments were administered 4 hr after the infection through injections. Prior to treatment, larvae were immobilized on ice for 15 min. We also applied treatments to larvae infected with sterile PBS to quantify potential negative effects of the treatment in the absence of an infection. Following treatment, larvae were put back to their allocated well of the 24-well plate and kept at 37°C in the dark.\n(§7) From the 12th hour post infection (hpi) onward, we regularly checked the survival of all larvae for a total of 48 hpi. Specifically, larvae were poked with a pipette tip and individuals not responding to the physical stimulation were considered dead. […]"}, "A. baumannii [6]": {"system": "A. baumannii", "experiment": "Infection model: treatment of infected larvae", "format": "in vivo, Galleria mellonella", "conditions": "injected 4 hr post infection", "experimental": "as §4, §5, §6, §7"}, "in vitro": {"experiment": "in vitro", "format": "cell-based", "conditions": "sheep", "experimental": "To determine the hemolytic activity of pyoverdines, we quantified sheep erythrocyte hemolysis at different pyoverdine concentrations. We first centrifuged 25 mL of fresh sheep blood (Chemie Brunschwig AG, Switzerland) in a 50 mL tube at 1500 × g for 5 min at 4°C. Plasma was then gently aspirated, replaced by PBS, and tubes were gently inverted to mix. This washing procedure was repeated three times. Pyoverdines were diluted in PBS to final relative concentrations of 1, 0.5, 0.25, 0.2, 0.02, and 0.002. PBS and 0.1% Triton X-100 (Sigma-Aldrich) served as negative and positive control, respectively. 100 µL erythrocyte solution was mixed with either 100 µL pyoverdine solution or the controls in a 96-well plate in triplicates. Following an incubation at 37°C and 120 rpm for 1 hr, the plate was centrifuged at 1036 × g for 5 min at 4°C. Subsequently, 100 µL of the supernatant were transferred to a new 96-well plate. Hemoglobin release was measured at 570 nm in the plate reader and the percent hemolysis was calculated relative to the positive control [% hemolysis = (OD570 of sample – negative control)/(positive control – negative control)]."}, "P. aeruginosa PAO1": {"system": "P. aeruginosa PAO1", "experiment": "Dose–response growth inhibition in CAA medium", "format": "cell-based, Pseudomonas aeruginosa", "conditions": "HPLC-purified ferribactin, concentration gradient", "experimental": "as §1, with “This medium contains low levels of iron, triggering pyoverdine production ([Cunrath et al., 2016]).” left out\nas §3"}, "[7]": {"conditions": "HPLC-purified ferribactin, concentration gradient"}}, "note": "Read-outs that look alike come from different tables or passages of the source. Square brackets hold non-standard residues; d marks the D form. Side chains are listed from the residue outwards. Peptide text beside a SMILES is read from it. * marks the point of attachment. ξ: configuration not given here. X1 = O=C(O)CCC(=O)NC1=Cc2cc(O)c(O)cc2N2C1=NCCC2C(=O)*; NH(1-OH-2-oxopiperidin-3-yl) = O=C1C(N*)CCCN1O; ξAsp(3ξ-OH) = NC(C(=O)O)C(O)C(=O)O", "data": [{"molecule": "Cc1c(O)c(=O)ccn1C", "note": "[deferiprone]", "values": [{"measurement": "growth suppression at sub-MIC levels", "setting": "A. baumannii [1]", "value": "only partially suppressed the growth"}, {"measurement": "minimum inhibitory concentration (MIC) relative to plasma levels in human therapy", "setting": "P. aeruginosa; ref Thompson et al., Visca et al.", "value": "up to 36.7 times"}, {"measurement": "growth suppression at sub-MIC levels", "setting": "P. aeruginosa; ref Visca et al., de Léséleuc et al.", "value": "only partially suppressed the growth"}]}, {"molecule": "O=C(N[C@H]1COC(=O)[C@@H](NC(=O)c2cccc(O)c2O)COC(=O)[C@@H](NC(=O)c2cccc(O)c2O)COC1=O)c1cccc(O)c1O", "note": "[enterobactin]", "values": [{"measurement": "iron affinity", "setting": "[2]; ref Harris et al., 1979", "value": "10^52 M^–1"}]}, {"molecule": "CC(NC(=O)C(NC(=O)C(CO)NC(=O)C(NC(=O)C(N)CCCCNC(=O)C(CC(=O)O)NC(=O)C1CCN=C2C(NC(=O)CCC(=O)O)=Cc3cc(O)c(O)cc3N21)C(O)C(=O)O)C(C)O)C(=O)NC(C(=O)NC(CCCCN)C(=O)NC1CCCN(O)C1=O)C(C)O", "note": "(stereo not shown) [pyoverdine s3b09] (H-K([Asp-X1])[ξAsp(3ξ-OH)]STATK-{NH(1-OH-2-oxopiperidin-3-yl)}; configuration not given here)", "values": [{"measurement": "growth reduction (model fit)", "setting": "K. pneumoniae [3]; HPLC-purified pyoverdine", "value": "9–12%"}, {"measurement": "growth reduction (model fit)", "setting": "K. pneumoniae [3]; crude-purified pyoverdine", "value": "9–12%"}, {"measurement": "IC50", "setting": "S. aureus JE2; Staphylococcus aureus, JE2, HPLC-purified pyoverdine, growth relative to untreated control", "value": 12.2, "unit": "µg/mL"}, {"measurement": "IC50", "setting": "A. baumannii [4]; Acinetobacter baumannii, HPLC-purified pyoverdine, CAA medium, growth relative to untreated control", "value": 5.04, "unit": "µg/mL"}, {"measurement": "inhibition of A. baumannii with iron supplementation", "setting": "A. baumannii [4]; CAA medium + 40 µM FeCl3", "value": "greatly reduced"}, {"measurement": "inhibition of A. baumannii with iron supplementation", "setting": "A. baumannii [4]; CAA medium + 200 µM FeCl3", "value": "completely stalled"}, {"measurement": "relationship between pyoverdine concentration and time-to-death", "setting": "K. pneumoniae [5]; relative concentrations 0-0.1, quadratic term significant", "value": "hump-shaped"}, {"measurement": "reduction of the risk of death, significance", "setting": "A. baumannii [6]; same tendency observed, z = –1.496, p=0.135", "value": "not significant"}, {"measurement": "hemolysis at 1 h, 1 relative concentration", "setting": "in vitro", "value": 5.92, "unit": "%"}]}, {"molecule": "CC(O)C(NC(=O)C(CO)NC(=O)C(NC(=O)C(N)CCCCNC(=O)C(CC(=O)O)NC(=O)C1CCN=C2C(NC(=O)CCC(=O)O)=Cc3cc(O)c(O)cc3N21)C(O)C(=O)O)C(=O)NC(CO)C(=O)NC(CCCCN)C(=O)NC1CCCN(O)C1=O", "note": "(stereo not shown) [pyoverdine 3A06] (H-K([Asp-X1])[ξAsp(3ξ-OH)]STSK-{NH(1-OH-2-oxopiperidin-3-yl)}; configuration not given here)", "values": [{"measurement": "growth reduction (model fit)", "setting": "K. pneumoniae [3]; crude-purified pyoverdine", "value": "9–12%"}, {"measurement": "reduction of the risk of death (hazard) vs untreated infection", "setting": "K. pneumoniae [5]; relative concentration 0.01, injected 4 hr post infection, 48 hr, Cox regression", "value": 51.5, "unit": "%"}, {"measurement": "reduction of the risk of death (hazard) vs untreated infection", "setting": "A. baumannii [6]; relative concentration 0.05, 48 hr, Cox regression", "value": 57.9, "unit": "%"}, {"measurement": "hemolysis at 1 h, 1 relative concentration", "setting": "in vitro", "value": 2.01, "unit": "%"}]}, {"molecule": "ferribactin [reference compound]", "values": [{"measurement": "growth inhibition", "setting": "K. pneumoniae [3]; [7]", "value": "no growth inhibition"}, {"measurement": "growth inhibition", "setting": "S. aureus JE2; [7]", "value": "no growth inhibition"}, {"measurement": "growth inhibition", "setting": "P. aeruginosa PAO1", "value": "no growth inhibition"}, {"measurement": "growth inhibition", "setting": "A. baumannii [4]; HPLC-purified ferribactin, concentration gradient, CAA medium", "value": "no growth inhibition"}]}, {"molecule": "CC(=O)N(O)CCCCCNC(=O)CCC(=O)N(O)CCCCCNC(=O)CCC(=O)N(O)CCCCCN", "note": "[desferoxamine]", "values": [{"measurement": "iron affinity", "setting": "[2]; ref Elalfy et al., 2023", "value": "10^27 M^–1"}]}, {"molecule": "acinetobactin", "values": [{"measurement": "iron association constant", "setting": "[2]", "value": "10^26 M^–1"}]}, {"molecule": "fimsbactin", "values": [{"measurement": "iron association constant", "setting": "[2]", "value": "10^27 M^–1"}]}, {"molecule": "pyoverdine", "values": [{"measurement": "iron affinity (Ka, association constant)", "setting": "[2]; ref Meyer and Abdallah, 1978", "value": "10^32 M^–1"}]}]}
